The values below come from patent US11584775B2, “C4-modified oleanolic acid derivatives for inhibition of IL-17 and other uses” (REATA PHARMACEUTICALS, INC., priority 2015, dated 2023).

In one test the test system is hIL17. Nature of the test: IL-17 release from differentiated primary human T-cells (IL-17A HTRF assay). Format: cell-based. The settings on record: inhibition of IL-17A levels; primary human CD4+ T cells differentiated into Th17 cells, 46-hour incubation. The procedure, abridged: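 Cryopreserved primary human CD4+ T cells were activated with anti-CD3/CD28 beads and driven to Th17 with TGF-β, IL-6, IL-23 and IL-1β in the presence of compound (2-500 nM or 4-1000 nM) for 46 h at 37° C. Supernatant IL-17A was quantified by HTRF against a standard curve and normalized to DMSO. IC50s came from variable-slope fits, with viability read by CyQuant.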

The next test has as its target T1, human RORγ (Homo sapiens, UniProt P51449).
T1 sequence (P51449 269-508 limits assumed): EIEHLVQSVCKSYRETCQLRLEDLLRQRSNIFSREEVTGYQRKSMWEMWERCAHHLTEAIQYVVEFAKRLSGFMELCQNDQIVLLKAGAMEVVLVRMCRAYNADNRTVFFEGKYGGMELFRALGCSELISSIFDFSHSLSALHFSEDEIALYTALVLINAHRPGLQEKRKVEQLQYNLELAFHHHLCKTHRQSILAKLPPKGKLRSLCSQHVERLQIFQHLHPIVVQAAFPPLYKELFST
Nature of the test: RORγ assay (GAL4-RORγ hybrid luciferase reporter, inverse-agonist activity). Format: cell-based. The settings on record: GAL4-RORγ hybrid reporter cells, 23 hours. In outline: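 Human cell line expressing GAL4-DBD/RORγ hybrid with UAS-driven luciferase, treated in triplicate with compound (0.4–200 nM or 2–1000 nM) for 23 h at 37 °C. Luminescence normalized to DMSO; viability measured in parallel by multiplex assay. IC50 for RORγ and viability by variable-slope nonlinear regression.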
(In a reporter assay the amount or activity of a reporter protein is the signal.)

For another test, the system named is NRF2. The test can be described thus: AREc32 luciferase reporter assay. Particulars: EC2×: concentration required to increase GST ARE Luciferase reporter activity by 2-fold; AREc32 cells, 19 hours. The format is cell-based, human. In outline: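 AREc32 cells (MCF-7 stably carrying eight rat GSTA2 ARE copies driving firefly luciferase) treated 19 h with compound (0.4–200 nM or 2–1000 nM), triplicate. Luminescence normalized to DMSO as fold-induction; variable-slope fit capped at 50-fold; EC2× = concentration giving 2-fold induction.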

The test system of test [1] is IFNγ-induced Nitric Oxide production. Nature of the test: Nitric oxide production assay in RAW 264.7 mouse macrophages. The format is cell-based. The settings on record: RAW264.7, suppression of IFNγ-induced NO production normalized to cell viability (WST-1), RAW 264.7, 24 hours IFNγ. The procedure, abridged: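 Cells pre-treated 2 h with compound (0.4-200 nM or 2-1000 nM) in RPMI 1640 + 0.5% FBS, then stimulated with recombinant mouse IFNγ for 24 h at 37 °C. Nitrite measured by Griess reagent, viability by WST-1; IC50 from NO suppression normalized to viability and to DMSO/IFNγ controls.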

Usually IC50 stands for the point on the concentration scale where inhibition reaches its midpoint.

For the molecule `Cc1noc([C@]23CCC(C)(C)C[C@H]2[C@H]2C(=O)C=C4[C@@]5(C)C=C(C#N)C(=O)[C@@](C)(CO)[C@@H]5CC[C@@]4(C)[C@]2(C)CC3)n1` [Compound T45, (4R,4aR,6aS,6bR,8aS,12aS,12bR,14bS)-4-(hydroxymethyl)-4,6a,6b, 11,11,14b-hexamethyl-8a-(3-methyl-1,2,4-oxadiazol-5-yl)-3,13-dioxo-3,4,4a,5,6,6a,6b,7,8,8a,9,10,11,12,12a,12b,13,14b-octadecahydropicene-2-carbonitrile], the IC50 with hIL17 turned out to be 17 nM; on human RORγ it was 165 nM; in test [1], 6.9 nM. The “EC2x: concentration giving 2-fold induction of ARE luciferase reporter” value with NRF2 is listed as 47 nM.
`CC(=O)OC[C@]1(C)C(=O)C(C#N)=C[C@]2(C)C3=CC(=O)[C@@H]4[C@@H]5CC(C)(C)CC[C@]5(c5nc(C)no5)CC[C@@]4(C)[C@]3(C)CC[C@H]21` [Compound T46, ((4R,4aR,6aS,6bR,8aS,12aS,12bR,14bS)-2-cyano-4,6a,6b, 11,11,14b-hexamethyl-8a-(3-methyl-1,2,4-oxadiazol-5-yl)-3,13-dioxo-3,4,4a,5,6,6a,6b,7,8,8a,9,10,11,12,12a,12b,13,14b-octadecahydropicen-4-yl)methyl acetate]: the IC50 in the test on hIL17 is 13 nM; on human RORγ, 115 nM; in test [1] it was 101 nM. Moreover, the “EC2x: concentration giving 2-fold induction of ARE luciferase reporter” value in the test with NRF2 is reported as 366 nM.
Regarding `Cc1noc([C@]23CCC(C)(C)C[C@H]2[C@H]2C(=O)C=C4[C@@]5(C)C=C(C#N)C(=O)[C@@](C)(O)[C@@H]5CC[C@@]4(C)[C@]2(C)CC3)n1` [Compound T47, (4S,4aR,6aS,6bR,8aS,12aS,12bR,14bS)-4-hydroxy-4,6a,6b, 11,11,14b-hexamethyl-8a-(3-methyl-1,2,4-oxadiazol-5-yl)-3,13-dioxo-3,4,4a,5,6,6a,6b,7,8,8a,9,10,11,12,12a,12b,13,14b-octadecahydropicene-2-carbonitrile], the figures for the half-inhibitory concentration (IC50) (with hIL17; at human RORγ; in test [1]) were 17 nM, 139 nM and 35.8 nM, respectively. Moreover, the “EC2x: concentration giving 2-fold induction of ARE luciferase reporter” value in the test on NRF2 was determined as 79 nM.
Consider `C[C@H](O)[C@]1(C)C(=O)C(C#N)=C[C@]2(C)C3=CC(=O)[C@]45OC(=O)[C@@]6(CCC(C)(C)C[C@H]64)CC[C@@]5(C)[C@]3(C)CC[C@@H]12` [Compound T48, (4R,4aR,6aR,6bS,8aS,12aR,12bS,14bS)-4-((S)-1-hydroxyethyl)-4,6a,6b, 11,11,14b-hexamethyl-3,13,16-trioxo-4,4a,5,6,6a,6b,7,8,10,11,12,12a,13,14b-tetradecahydro-3H,9H-12b,8a-(epoxymethano)picene-2-carbonitrile], for which the half-maximal inhibitory concentration (IC50) in the test with hIL17 was determined as 13 nM; at human RORγ, 162 nM; in test [1], 1.2 nM. In addition, the “EC2x: concentration giving 2-fold induction of ARE luciferase reporter” value in the test on NRF2 stood at 3 nM.
Turning to `Cc1noc([C@]23CCC(C)(C)C[C@H]2[C@H]2C(=O)C=C4[C@@]5(C)[C@H]6O[C@@]6(C#N)C(=O)[C@@](C)(O)[C@@H]5CC[C@@]4(C)[C@]2(C)CC3)n1` [Compound T49, (1 aR,3S,3aR,5aS,5bR,7aS,11aS,11bR,13bS,13cR)-3-hydroxy-3,5a,5b, 10,10,13b-hexamethyl-7a-(3-methyl-1,2,4-oxadiazol-5-yl)-2,12-dioxo-3,3a,4,5,5a,5b,6,7,7a,8,9,10,11,11a,11b,12,13b,13c-octadecahydropiceno[1,2-b]oxirene-1a(2H)-carbonitrile], the half-inhibitory concentration (IC50) with hIL17 stood at 18 nM; at human RORγ it was 608 nM; in test [1], 37.5 nM. Further, the “EC2x: concentration giving 2-fold induction of ARE luciferase reporter” value in the test on NRF2 is recorded as 244 nM.
Regarding `CC1(C)CC[C@@]23CC[C@@]4(C)[C@]5(C)CC[C@@H]6[C@@](C)(C5=CC(=O)[C@]4(OC2=O)[C@@H]3C1)[C@H]1O[C@@]1(C#N)C(=O)[C@@]6(C)O` [Compound T50, (1aR,3S,3aR,5aR,5bS,7aS,11aR,11bS,13bS,13cR)-3-hydroxy-3,5a,5b,10,10,13b-hexamethyl-2,12,15-trioxo-3,3a,4,5,5a,6,7,9,10,11,11a,12,13b,13c-tetradecahydro-2H, 8H-11b,7a-(epoxymethano)piceno[1,2-b]oxirene-1a(5bH)-carbonitrile], the results for the IC50 (in the test on hIL17; on human RORγ; in test [1]) were 11 nM, 1040 nM and 65.4 nM, respectively. The “EC2x: concentration giving 2-fold induction of ARE luciferase reporter” value in the test on NRF2 turned out to be 162 nM.
With `CC1(C)CC[C@]2(NC(=O)C(C)(F)F)CC[C@]3(C)[C@H](C(=O)C=C4[C@@]5(C)[C@H]6O[C@@]6(C#N)C(=O)[C@@](C)(O)[C@@H]5CC[C@]43C)[C@@H]2C1` [Compound T51, N-((1aR,3S,3aR,5aS,5bR,7aS,11aS,11bR,13bS,13cR)-1a-cyano-3-hydroxy-3,5a,5b,10,10,13b-hexamethyl-2,12-dioxo-1a,3,3a,4,5,5a,5b,6,7,8,9,10,11,11a,11b,12,13b,13c-octadecahydropiceno[1,2-b]oxiren-7a(2H)-yl)-2,2-difluoropropanamide], the figures for the half-maximal inhibitory concentration (IC50) (with hIL17; on human RORγ; in test [1]) were 139 nM, 1690 nM and 119 nM, respectively. In addition, the “EC2x: concentration giving 2-fold induction of ARE luciferase reporter” value with NRF2 was found to be 840 nM.
